# Test results taken from US6525059B1, “Substituted pyrazoles as p38 kinase inhibitors” (G. D. Searle & Company, priority 1998, dated 2003).
# Several values for one entry are separate records, joined by “and”; a condition that tells them apart may be missing. Identical values can stand only once. Counter-ions that a name gives are not always drawn. Like-named read-outs stand apart in the source and are kept apart here.
# Assays:
# [1] = target: T1, human GST-p38 kinase alpha (Homo sapiens, UniProt Q16539); assay: p38 kinase in vitro assay, second format, phosphorylation of EGFRP with 33P-ATP; format: biochemical
# T1 construct: The coding region of the human p38a cDNA was obtained by PCR-amplification from RNA isolated from the human monocyte cell line THP.1; made in house; host or cells: E. coli DH10B
# Protocol: A second assay format was also employed that is based on p38 kinase alpha induced phosphorylation of EGFRP (epidermal growth factor receptor peptide, a 21 mer) in the presence of ^33P-ATP. Compounds were tested in 10 fold serial dilutions over the range of 100 μM to 0.001 μM in 10% DMSO. Each concentration of inhibitor was tested in triplicate. Compounds were evaluated in 50 μl reaction volumes in the presence of 25 mM Hepes pH 7.5, 10 mM magnesium acetate, 4% glycerol, 0.4% bovine serum albumin, 0.4 mM DTT, 50 μM unlabeled ATP, 25 μg EGFRP (200 μM), and 0.05 uCi gamma ^33P-ATP. Reactions were initiated by addition of 0.09 μg of activated, purified human GST-p38 kinase alpha. Activation was carried out using GST-MKK6 (5:1, p38: MKK6) for one hour at 30° C. in the presence of 50 μM ATP. Following incubation for 60 minutes at room temperature, the reaction was stopped by addition of 150 μl of AG 1×8 resin in 900 mM sodium formate buffer, pH 3.0 (1 volume resin to 2 volumes buffer). The mixture was mixed three times with pipetting and the resin was allowed to settle. A total of 50 μl of clarified solution head volume was transferred from the reaction wells to Microlite-2 plates. 150 μl of Microscint 40 was then added to each well of the Microlite plate, and the plate was sealed, mixed, and counted.
# TNF-α [2] = assay: Rat assay: LPS-challenged rats, serum TNF-α by ELISA; format: in vivo; details: for Rat LPS Model % inhib @ dose @ predose time / inhibition in vivo at 3 mg/kg: 3 mpk oral gavage; for inhibition in vivo at 5 mg/kg: 5 mpk oral gavage, read-out: Rat LPS Model % Inhibition @ dose @ predose time; for inhibition in vivo at 3 mg/kg: -4 h, read-out: Rat LPS Model % inhib @ dose @ predose time
# Protocol: The efficacy of the novel compounds in blocking the production of TNF also was evaluated using a model based on rats challenged with LPS. Male Harlen Lewis rats [Sprague Dawley Co.] were used in this model. Each rat weighed approximately 300 g and was fasted overnight prior to testing. Compounds administration was typically by oral gavage (although intraperitoneal, subcutaneous and intravenous administration were also used in a few instances) 1 to 24 hours prior to the LPS challenge. Rats were administered 30 μg/kg LPS [salmonella typhosa, Sigma Co.] intravenously via the tail vein. Blood was collected via heart puncture 1 hour after the LPS challenge. Serum samples were stored at −20° C. until quantitative analysis of TNF-α by Enzyme Linked-Immuno-Sorbent Assay (“ELISA”) [Biosource]. Additional details of the assay are set forth in Perretti, M., et al., Br. J. Pharmacol. (1993), 110, 868-874, which is incorporated by reference in this application.
# In vivo assessment of the ability of the compounds to inhibit LPS-stimulated TNF release in the rat is shown in the column identified as:
# wherein in the dose is milligram per kilogram (mpk) administered by oral gavage and the predose time indicates the number of hours before LPS challenge when the compound is administered.
# TNF-α [3] = assay: LPS stimulation of TNF production by U937 cells; format: cell-based, human; details: Homo sapiens; for IC50: U-937, LPS-stimulated U937 cells, read-out: U937 IC50; for inhibition at 1 µM: U-937, @ 1.0 uM, read-out: U937 Cell % inhib @ conc.
# Summary of the method: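 PMA-differentiated human U937 cells (20 ng/ml PMA, 24 h, then 24-48 h rest) at 2 million cells/ml, 0.1% DMSO final, stimulated with E. coli LPS (100 ng/ml final) for 4 h at 37° C. TNF-α in medium measured by ELISA; IC50 in μM.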
# human p38 kinase alpha = target: T2, human p38 kinase alpha (Homo sapiens, UniProt Q16539); assay: p38 kinase in vitro assay, phosphorylation of biotinylated PHAS-I with gamma 32P-ATP; format: biochemical
# T2 construct: The coding region of the human p38a cDNA was obtained by PCR-amplification from RNA isolated from the human monocyte cell line THP.1; GST (N); made in house; host or cells: E. coli DH10B
# Summary of the method: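 MKK6-activated human p38α phosphorylates biotinylated PHAS-I with γ-32P-ATP in 25 mM HEPES pH 7.5, 10 mM Mg acetate, 50 μM unlabeled ATP, 1% DMSO, 30 °C for 1 h or overnight. Compounds at 100–0.001 μM (10-fold steps, triplicate); substrate captured on streptavidin filter plates and counted by scintillation.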
# [4] = p38α in vitro, EGFRP assay procedure, read-out: p38^2 IC50
# [5] = Rattus norvegicus, po, 4 h before LPS challenge
# [6] = read-out: P38 alpha kinase IC50
# [7] = Table 10, 10% DMSO, @ 1.0 hour, read-out: p38α Kinase Assay IC50
# [8] = Rattus norvegicus, po, -4h before LPS
# T2 sequence (Q16539 whole entry): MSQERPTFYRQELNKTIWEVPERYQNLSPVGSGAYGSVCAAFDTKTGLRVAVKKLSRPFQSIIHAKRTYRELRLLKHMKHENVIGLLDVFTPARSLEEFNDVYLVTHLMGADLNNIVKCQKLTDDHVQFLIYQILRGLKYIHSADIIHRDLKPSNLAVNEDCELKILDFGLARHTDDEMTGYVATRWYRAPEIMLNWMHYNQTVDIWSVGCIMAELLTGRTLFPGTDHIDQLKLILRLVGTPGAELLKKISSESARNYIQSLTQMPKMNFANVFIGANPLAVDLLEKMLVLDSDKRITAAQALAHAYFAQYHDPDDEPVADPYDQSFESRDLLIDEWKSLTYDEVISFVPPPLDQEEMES
# T1 sequence (Q16539 whole entry): as above
structure (smiles),measurement,setting,value
"Fc1ccc(-c2n[nH]cc2-c2ccnc(/C=C/c3ccccc3)c2)cc1 [Example A-244, (E)-4-[3-(4-fluorophenyl)-1H-pyrazol-4-yl]-2-(2-phenylethenyl)pyridine]",IC50,[1]; [4],99 nM
O=C(C1CC1)N1CCC(c2[nH]nc(-c3ccc(F)cc3)c2-c2ccncc2)CC1 [Example B-1364],Rat LPS Model % inhib @ dose @ predose time,TNF-α [2]; 4 h before LPS challenge,17% @ 3 mpk @ -4h
"Ic1ccc(-c2n[nH]cc2-c2ccncc2)cc1 [Example A-250, 4-[3-(4-iodophenyl)-1H-pyrazol-4-yl]pyridine]",IC50,[1]; [4],2870 nM
"Cn1cc(-c2ccncc2)c(-c2cccc(C(F)(F)F)c2)n1 [Example A-238, 4-[1-methyl-3-[3-(trifluoromethyl)phenyl]-1H-pyrazol-4-yl]pyridine]",IC50,[1]; [4],177 nM
same,IC50,TNF-α [3],402 nM
"C=CCn1cc(-c2ccncc2)c(-c2ccc(F)cc2)n1 [Example A-385, 4-[3-(4-fluorophenyl)-1-(2-propenyl)-1H-pyrazol-4-yl]pyridine, monohydrochloride]",IC50,"[1]; Table 9, 10% DMSO, read-out: p38α Kinase Assay IC50",180 nM and 1250 nM
"N[C@H]1CC[C@@H](c2[nH]nc(-c3cccc(Cl)c3)c2-c2ccncc2)CC1 [Example C-105, 5-cis-(4-AMINOCYCLOHEXYL)-4-(4-PYRIDYL)-3-(3-CHLOROPHENYL)PYRAZOLE]",inhibition in vivo at 5 mg/kg,TNF-α [2]; [5],46%
same,IC50,human p38 kinase alpha; [6],33 nM
"COc1ccc(CNc2cc(-c3c[nH]nc3-c3ccc(Cl)cc3)ccn2)cc1 [Example A-246, 4-[3-(4-chlorophenyl)-1H-pyrazol-4-yl]-N-[(4-methoxy-phenyl)methyl]-2-pyridinamine]",IC50,[1]; [4],592 nM
same,IC50,"human p38 kinase alpha; p38α in vitro, PHAS-I assay procedure, read-out: p38^1 IC50",403 nM
same,IC50,TNF-α [3],495 nM
CC(NS(=O)(=O)c1ccc(F)c(Cl)c1)c1[nH]nc(-c2ccc(F)cc2)c1-c1ccncc1 (centres unmarked) [Example B-0643],Rat LPS Model % inhib @ dose @ predose time,TNF-α [2]; -4h before LPS,0% @ 3 mpk @ -4h
CN1CCC(c2[nH]nc(-c3ccc(Cl)cc3)c2-c2ccncn2)CC1 [Example C-137],inhibition in vivo at 5 mg/kg,TNF-α [2]; [5],58%
same,IC50,human p38 kinase alpha; [6],51 nM
O=C(O)CSc1[nH]nc(-c2ccc(Cl)cc2)c1-c1ccncc1 [Example A-461],IC50,[1]; [7],30600 nM
"Cc1cccc(C(=O)Cc2ccncc2)c1 [A-389, Step 1, 1-tolyl-2-(4-pyridyl)ethanone]",IC50,[1]; [7],1720 nM
O=C(C(=C(SCC1OCCO1)SCC1OCCO1)c1ccncc1)c1ccc(F)cc1 [Example A-449],IC50,[1]; [7],59000 nM
"Clc1ccc(-c2n[nH]cc2-c2ccnc(NCc3ccccn3)c2)cc1 [Example A-247, N-[4-[3-(4-chlorophenyl)-1H-pyrazol-4-yl]-2-pyridinyl]-2-pyridinemethanamine]",IC50,[1]; [4],< 10 nM
same,IC50,TNF-α [3],166 nM
"O=C(CO)N1CCC(c2[nH]nc(-c3ccc(Cl)cc3)c2-c2ccncn2)CC1 [Example D-1, N-(2-Hydroxyacetyl)-5-(4-piperidyl)-4-(4-pyrimidyl)-3-(4-chlorophenyl)pyrazole]",inhibition in vivo at 1 mg/kg,"TNF-α [2]; Rattus norvegicus, po, 1.0 mg/kg oral gavage, 4 hours before LPS challenge, read-out: ratLPS/% Inh @1.0 (mg/kg)",83%
C[C@@H](NS(=O)(=O)c1cccc(Br)c1)c1[nH]nc(-c2ccc(F)cc2)c1-c1ccncc1 [Example B-0455],inhibition in vivo at 3 mg/kg,TNF-α [2]; [8],36%
same,inhibition at 1 µM,TNF-α [3],95%
C[C@@H](NS(=O)(=O)c1ccc(-c2ccccc2)cc1)c1[nH]nc(-c2ccc(F)cc2)c1-c1ccncc1 [Example B-0481],inhibition in vivo at 3 mg/kg,TNF-α [2]; [8],56%
same,IC50,human p38 kinase alpha; [6],14 nM
same,inhibition at 1 µM,TNF-α [3],95%
Sc1[nH]nc(-c2ccc(Cl)cc2)c1-c1ccncc1 [Example A-455],IC50,[1]; [7],12900 nM
